Assays:
SNU-5 cells = assay: Internalization (endocytosis) in SNU-5 cells, pHAb secondary antibody, flow cytometry; format: cell-based, human; conditions: 2.5 μg/ml, 1 hour
Description: Anti-EGFR antibodies (2.5 μg/ml) and pHAb-Goat Anti-Human IgG secondary antibody (Promega (Beijing) Biotech Co., Ltd., Cat #: G9845) were added to SNU-5 cells (ATCC, Reference No.: CRL-5973). After incubating at 37° C. and 5% CO2 for 1 hour, the cells were centrifuged and washed with FACS buffer. The mean fluorescence intensity (MFI) values were measured using a flow cytometer, and the endocytosis rates of the anti-EGFR antibodies were calculated.
Anti-MET antibodies ([…]) and pHAb-GoatAnti-Human IgG Antibody (Promega (Beijing) Biotech Co., Ltd., Cat #: G9845) were added to SUN-5 cells. After incubating for 1 hour, the cells were centrifuged and washed with FACS buffer. The MFI values were measured using a flow cytometer, and the endocytosis rates of the anti-MET antibodies were calculated.
The secondary antibody used in the experiment was: pHAb-AffiniPure Fab Fragment Goat Anti-Human IgG (Jackson Immuno Research, Cat #: 109-007-008).

human MET (hMET-His) [1] = biological target: T1, human MET (hMET-His) (Homo sapiens, UniProt P08581); assay: SPR binding affinity of anti-MET antibodies to hMET-His
T1 construct: His; purchased ACROBiosystems Inc. MET-H5227
T1 sequence (P08581 25-932 limits assumed): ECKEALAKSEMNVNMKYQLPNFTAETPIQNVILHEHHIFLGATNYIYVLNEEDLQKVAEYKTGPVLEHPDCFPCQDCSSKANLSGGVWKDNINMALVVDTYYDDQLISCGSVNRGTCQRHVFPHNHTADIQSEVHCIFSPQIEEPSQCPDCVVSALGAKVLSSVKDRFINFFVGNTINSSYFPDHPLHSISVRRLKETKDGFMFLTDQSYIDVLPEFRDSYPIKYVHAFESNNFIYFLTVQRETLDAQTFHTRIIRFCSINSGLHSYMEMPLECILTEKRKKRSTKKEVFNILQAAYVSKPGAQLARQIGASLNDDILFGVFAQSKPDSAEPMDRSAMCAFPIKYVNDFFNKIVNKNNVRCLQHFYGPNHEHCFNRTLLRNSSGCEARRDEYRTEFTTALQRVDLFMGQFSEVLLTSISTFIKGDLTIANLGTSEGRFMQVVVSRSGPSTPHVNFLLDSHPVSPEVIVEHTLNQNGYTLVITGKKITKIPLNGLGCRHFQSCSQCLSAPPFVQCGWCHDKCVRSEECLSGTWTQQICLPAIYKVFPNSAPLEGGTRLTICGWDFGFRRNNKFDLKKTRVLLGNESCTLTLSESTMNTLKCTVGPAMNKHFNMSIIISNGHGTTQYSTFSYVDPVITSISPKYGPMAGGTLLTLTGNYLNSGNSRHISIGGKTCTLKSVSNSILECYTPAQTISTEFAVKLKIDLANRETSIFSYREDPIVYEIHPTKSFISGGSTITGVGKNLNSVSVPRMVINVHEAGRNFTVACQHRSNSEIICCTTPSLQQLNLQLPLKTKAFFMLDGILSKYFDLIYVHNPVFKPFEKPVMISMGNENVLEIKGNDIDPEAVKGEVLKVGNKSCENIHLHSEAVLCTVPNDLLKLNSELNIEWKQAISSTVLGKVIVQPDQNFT
Description: (§1) In another similar experiment, the binding affinity of anti-MET antibodies M-6D12, M-6E6, M-7D3, M-819, M-8E2 and M-8H10 to hMET-His, fasMET-His or dMET-His (His-tagged dog MET, Sino, Cat #:70008-D08H) was verified. Telisotuzumab analog was used as a positive control.

monkey MET (fasMET-His) [2] = assay: SPR binding affinity of anti-MET antibodies to fasMET-His
Chain of monkey MET (fasMET-His) (as listed by the source): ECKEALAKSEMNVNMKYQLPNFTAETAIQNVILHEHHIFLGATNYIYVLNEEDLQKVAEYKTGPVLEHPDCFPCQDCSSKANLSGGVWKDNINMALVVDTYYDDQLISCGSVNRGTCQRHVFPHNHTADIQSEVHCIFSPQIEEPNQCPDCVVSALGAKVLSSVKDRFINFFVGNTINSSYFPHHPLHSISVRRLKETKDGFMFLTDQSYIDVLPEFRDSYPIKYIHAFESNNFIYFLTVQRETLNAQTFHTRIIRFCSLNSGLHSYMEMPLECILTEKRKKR
Chain of monkey MET (fasMET-His) (as listed by the source): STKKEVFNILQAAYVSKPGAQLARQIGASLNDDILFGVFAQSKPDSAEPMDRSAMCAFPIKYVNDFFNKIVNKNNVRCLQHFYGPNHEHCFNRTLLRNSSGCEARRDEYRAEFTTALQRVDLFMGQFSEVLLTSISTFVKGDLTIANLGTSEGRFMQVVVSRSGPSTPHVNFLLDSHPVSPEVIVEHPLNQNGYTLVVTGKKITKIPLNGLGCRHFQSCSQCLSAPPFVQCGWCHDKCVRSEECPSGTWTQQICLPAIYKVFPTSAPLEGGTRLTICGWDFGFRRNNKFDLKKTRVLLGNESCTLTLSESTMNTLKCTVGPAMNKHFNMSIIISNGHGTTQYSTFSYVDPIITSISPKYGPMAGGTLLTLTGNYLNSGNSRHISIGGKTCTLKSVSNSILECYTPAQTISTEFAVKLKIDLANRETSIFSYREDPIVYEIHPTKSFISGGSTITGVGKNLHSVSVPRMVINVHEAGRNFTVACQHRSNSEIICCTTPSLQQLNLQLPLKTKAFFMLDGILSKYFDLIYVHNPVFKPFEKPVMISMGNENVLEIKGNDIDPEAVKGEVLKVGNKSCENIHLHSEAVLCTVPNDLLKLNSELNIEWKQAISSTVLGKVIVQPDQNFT
Description: as §1

dog MET (dMET-His) = biological target: T2, dog MET (dMET-His) (Canis lupus familiaris, UniProt Q75ZY9); assay: SPR binding affinity of anti-MET antibodies to dMET-His
T2 construct: His; purchased Sino 70008-D08H
T2 sequence (Q75ZY9 25-933 limits assumed): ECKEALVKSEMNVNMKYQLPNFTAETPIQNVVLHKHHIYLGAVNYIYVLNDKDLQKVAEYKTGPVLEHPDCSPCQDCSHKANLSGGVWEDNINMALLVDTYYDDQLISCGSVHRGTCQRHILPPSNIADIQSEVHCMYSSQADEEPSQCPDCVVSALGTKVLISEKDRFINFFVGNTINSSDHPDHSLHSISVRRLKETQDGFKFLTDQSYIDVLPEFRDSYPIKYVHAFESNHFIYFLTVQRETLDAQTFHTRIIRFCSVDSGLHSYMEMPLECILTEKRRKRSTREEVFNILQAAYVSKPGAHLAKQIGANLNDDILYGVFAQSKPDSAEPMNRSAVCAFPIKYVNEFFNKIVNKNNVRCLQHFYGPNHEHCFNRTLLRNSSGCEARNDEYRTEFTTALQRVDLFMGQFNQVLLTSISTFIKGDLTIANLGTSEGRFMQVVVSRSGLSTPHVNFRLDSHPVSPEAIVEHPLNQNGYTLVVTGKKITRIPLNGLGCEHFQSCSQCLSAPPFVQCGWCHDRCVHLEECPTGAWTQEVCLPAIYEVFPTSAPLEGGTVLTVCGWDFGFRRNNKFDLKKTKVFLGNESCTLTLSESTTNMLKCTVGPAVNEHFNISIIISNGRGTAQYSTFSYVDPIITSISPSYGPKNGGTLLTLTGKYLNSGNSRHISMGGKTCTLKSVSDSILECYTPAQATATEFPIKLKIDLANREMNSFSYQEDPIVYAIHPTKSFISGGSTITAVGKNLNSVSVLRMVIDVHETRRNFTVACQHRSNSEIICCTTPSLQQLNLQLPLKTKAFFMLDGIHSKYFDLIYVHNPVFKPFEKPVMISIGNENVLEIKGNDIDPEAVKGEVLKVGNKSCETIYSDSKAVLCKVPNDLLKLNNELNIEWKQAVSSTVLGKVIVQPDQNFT
Description: as §1

HCC827 cells = assay: Internalization of antibodies targeting EGFR and/or MET in HCC827 cells; format: cell-based, human; conditions: HCC827, 1 hour
Description: (§2) Anti-EGFR antibodies, anti-MET antibodies, or anti-EGFR/MET bispecific antibodies, together with the pHAb-Goat anti-human IgG secondary antibody were added to NCI-H1975 cells (ATCC, Reference No.: CRL-5908), HCC827 cells (ATCC, Reference No.: CRL-2868) and NCI-H292 (ATCC, Reference No.: CRL-1848) cells, respectively, and incubated for 1 hour. The cells were centrifuged and washed with FACS buffer. MFI was measured using a flow cytometer. Endocytosis rates of antibodies were calculated. For isotype control (ISO), an antibody targeting an irrelevant target protein was used.

NCI-H292 cells = assay: Internalization of antibodies targeting EGFR and/or MET in NCI-H292 cells; format: cell-based, human; conditions: NCI-H292, 1 hour
Description: as §2

[3] = biological target: monkey EGFR (fasEGFR-His); assay: SPR binding activity of anti-EGFR/MET bispecific antibodies to fasEGFR-His; conditions: Table 15
Description: (§3) Dissociation was monitored for 400 seconds.

human MET (hMET-His) [4] = biological target: T1, human MET (hMET-His); assay: SPR binding activity of anti-EGFR/MET bispecific antibodies to hMET-His; conditions: Table 15
Description: as §3

monkey MET (fasMET-His) [5] = assay: SPR binding activity of anti-EGFR/MET bispecific antibodies to fasMET-His; conditions: Table 15
Description: as §3

human EGFR (hEGFR-His) = human EGFR (hEGFR-His) (Homo sapiens, UniProt P00533); assay: SPR binding activity of anti-EGFR/MET bispecific antibodies to hEGFR-His; conditions: Table 15

Q: What does the source list for “Telisotuzumab analog: analog of Telisotuzumab, humanized IgG1 monoclonal antibody targeting MET; SEQ ID NO: 75 and 76 [reference compound]”?
A: MFI (SNU-5 cells): 21700; Percentage of Positive (endocytosis) (SNU-5 cells): 36.9%; binding to human MET (human MET (hMET-His) [1]): showed binding affinity; binding to monkey MET (monkey MET (fasMET-His) [2]): showed binding affinity; binding to dog MET (dog MET (dMET-His)): no binding affinity; MFI (HCC827 cells): 10344; Positive Population (HCC827 cells): 0.63%; MFI (NCI-H292 cells): 6969; Positive Population (NCI-H292 cells): 2.32%; KD [3]: No binding; koff (human MET (hMET-His) [4]): 0.0001 s⁻¹; kon (human MET (hMET-His) [4]): 103000 M⁻¹ s⁻¹; koff (monkey MET (fasMET-His) [5]): 9.41e-05 s⁻¹; kon (monkey MET (fasMET-His) [5]): 62600 M⁻¹ s⁻¹; KD (human EGFR (hEGFR-His)): No binding
